Experimental data: patent US5601801A, “Radiolabelled angiotensin converting enzyme inhibitors” (Merck Frosst Canada, Inc., priority 1994, dated 1997)
Read-outs that look alike come from different tables or passages of the source.

Molecular target: T1, angiotensin converting enzyme (ACE) (Oryctolagus cuniculus, UniProt P12822)
T1 construct: a slurry of 10 g of lyophilized rabbit lung powder (Pel-Freez); tissue Pel-Freez; host or cells: rabbit lung (lyophilized powder, buffer extract)
T1 sequence (P12822 34-1310): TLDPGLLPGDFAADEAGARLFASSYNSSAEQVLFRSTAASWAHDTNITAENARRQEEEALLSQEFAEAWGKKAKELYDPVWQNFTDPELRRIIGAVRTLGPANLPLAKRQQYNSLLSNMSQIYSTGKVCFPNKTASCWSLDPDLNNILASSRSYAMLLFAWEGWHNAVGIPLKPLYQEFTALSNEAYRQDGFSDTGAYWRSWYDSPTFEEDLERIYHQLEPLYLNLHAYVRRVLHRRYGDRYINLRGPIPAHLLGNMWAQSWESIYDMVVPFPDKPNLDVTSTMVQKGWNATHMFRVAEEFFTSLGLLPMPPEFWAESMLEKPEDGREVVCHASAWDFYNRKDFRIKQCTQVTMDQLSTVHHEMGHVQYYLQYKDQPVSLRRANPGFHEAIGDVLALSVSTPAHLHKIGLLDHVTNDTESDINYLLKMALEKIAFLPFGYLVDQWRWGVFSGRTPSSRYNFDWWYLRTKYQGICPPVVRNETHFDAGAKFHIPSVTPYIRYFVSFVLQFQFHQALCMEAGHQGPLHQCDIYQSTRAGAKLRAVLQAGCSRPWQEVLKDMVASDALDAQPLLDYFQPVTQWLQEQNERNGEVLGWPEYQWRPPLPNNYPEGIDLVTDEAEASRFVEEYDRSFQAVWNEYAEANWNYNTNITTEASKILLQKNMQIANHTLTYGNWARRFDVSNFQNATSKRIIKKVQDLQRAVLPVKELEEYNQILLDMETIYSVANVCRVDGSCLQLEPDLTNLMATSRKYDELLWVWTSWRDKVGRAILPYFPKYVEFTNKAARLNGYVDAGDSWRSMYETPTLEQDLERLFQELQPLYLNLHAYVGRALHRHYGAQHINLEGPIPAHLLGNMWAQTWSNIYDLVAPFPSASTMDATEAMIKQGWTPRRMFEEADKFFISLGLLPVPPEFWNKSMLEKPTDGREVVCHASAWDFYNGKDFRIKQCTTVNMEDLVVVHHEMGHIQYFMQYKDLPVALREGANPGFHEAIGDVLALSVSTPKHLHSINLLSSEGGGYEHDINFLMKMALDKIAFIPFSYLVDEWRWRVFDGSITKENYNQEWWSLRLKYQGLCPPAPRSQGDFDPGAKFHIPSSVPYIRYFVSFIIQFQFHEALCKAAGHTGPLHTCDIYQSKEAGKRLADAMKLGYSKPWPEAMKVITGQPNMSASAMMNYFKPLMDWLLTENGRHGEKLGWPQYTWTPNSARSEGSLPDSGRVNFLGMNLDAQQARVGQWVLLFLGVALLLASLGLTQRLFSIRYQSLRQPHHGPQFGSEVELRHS
Test: IC50 Assay (Cushman and Cheung; hippuryl-L-histidyl-L-leucine hydrolysis by rabbit lung powder extract)
Type: biochemical
Experimental: According to the assay of Cushman and Cheung Biochem. Pharmacol 20, 1637, (1971), a slurry of 10 g of lyophilized rabbit lung powder (Pel-Freez) and 100 mL of 50 mM potassium phosphate buffer, pH 8.3, was blended for three one minute intervals followed by centrifugation for 40 minutes at 17,500 rpm. The clear supernatant was assayed for protein by the modified Lowry test and the volume of the rabbit lung powder extract (RLPE) was adjusted with buffer, 100 mM phosphate buffer prepared to yield a pH of 8.3 in the presence of 300 mM NaCl, to give 10-20 mU of angiotensin converting enzyme (ACE) activity in a 100 μL volume. The assay was carried out in 13×100 mm disposable culture tubes, with each assay tube containing 100 μL RLPE, 50 μL of a 12.5 mM solution of hippuryl-L-histidyl-L-leucine (HHL) (Sigma) in a buffer and 100 μL of inhibitor solution made up in buffer. The enzyme is added last to initiate the reaction and the tubes are incubated at 37° C. for one hour. The assay is terminated by the addition of 250 μL of 1M HCl to each tube; the HCl is added before the enzyme in the zero-time control assays. To each tube is added 1.5 mL of ethyl acetate followed by vortex mixing for 15 seconds. After the tubes have been centrifuged at 2,500 rpm for 5 minutes, 1 mL of the ethyl acetate layer is transferred to a clean 12×75 mm disposable culture tube. The ethyl acetate was evaporated by heating at 90° C. in a water bath for 30 minutes. Addition of 1 mL of water to each tube followed by vortex mixing for 15 seconds redissolves the hippuric acid. […]

| SMILES | A228 ± SD (-log[MIBA] 7.246) | A228 ± SD (-log[MIBA] 8.246) | A228 ± SD (-log[MIBA] 9.246) | A228 ± SD (-log[MIBA] 10.246) | A228 ± SD (-log[MIBA] 11.246) | IC50 (rabbit lung ACE, HHL substrate, pH 8.3, 37° C., one hour, read-out: IC50) | IC50 | A228 ± SD (-log[Lisin] 6.206) | A228 ± SD (-log[Lisin] 7.206) | A228 ± SD (-log[Lisin] 8.206) | A228 ± SD (-log[Lisin] 9.206) | A228 ± SD (-log[Lisin] 10.206) |
| --- | --- | --- | --- | --- | --- | --- | --- | --- | --- | --- | --- | --- |
| O=C(NCCCC[C@H](N[C@@H](CCc1ccccc1)C(=O)O)C(=O)N1CCC[C@H]1C(=O)O)c1cccc(I)c1 [lisinopril MIBA] | 0.025 ± 0.007 | 0.224 ± 0.016 | 1.196 ± 0.026 | 2.174 ± 0.047 | 2.360 ± 0.060 | 0.6 nM |  |  |  |  |  |  |
| NCCCC[C@H](N[C@@H](CCc1ccccc1)C(=O)O)C(=O)N1CCC[C@H]1C(=O)O [lisinopril, reference compound] |  |  |  |  |  |  | 5.4 nM | 0.029 ± 0.007 | 0.175 ± 0.007 | 0.946 ± 0.012 | 2.275 ± 0.031 | 2.371 ± 0.060 |
